In the RepoRT retention time repository (doi:10.1016/j.jhazmat.2019.121712):

Assay: Thermo Scientific Acclaim RSLC 120 C18, 100 × 2.1 mm, 2.2 µm, 30 °C; A: 90% water + 10% methanol + 0.01% formic acid + 5 mM ammonium formate; B: methanol + 0.01% formic acid + 5 mM ammonium formate; gradient (min/%B) 0.1/1 3/39 14/99.9 16/99.9
Details: stereoisomer not certain

Row | SMILES | LC retention time [min]
1 | N=C1NC(=O)C(c2ccccc2)O1 (centres undefined) | 4.34
2 | COC(=O)C1C2CC3c4[nH]c5cc(OC)ccc5c4CCN3CC2CC(OC(=O)c2cc(OC)c(OC)c(OC)c2)C1OC (centres undefined) | 8.47
3 | CCCCC(CC)COC(=O)c1ccccc1C(=O)OCC(CC)CCCC (centres undefined) | 15
4 | CCOP(=O)(SC(C)CC)SC(C)CC (centres undefined) | 11.5
5 | COCCCOc1ccnc(CS(=O)c2nc3ccccc3[nH]2)c1C (centres undefined) | 7.52
6 | CCCCCn1cc(C(=O)c2cccc3ccccc23)c2ccc(O)cc21 | 11.2
7 | CCSCc1ccccc1OC(=O)NC | 7.7
8 | CCCc1nn(C)c2c(=O)[nH]c(-c3cc(S(=O)(=O)N4CC(C)NC(C)C4)ccc3OCC)nc12 (centres undefined) | 7.6
9 | CNCC(C)CN1c2ccccc2CCc2ccccc21 (centres undefined) | 8.49
10 | COc1ccc2[nH]cc(CCN)c2c1 | 4.01
11 | COc1cccc(C(=O)CCNC(C)C(O)c2ccccc2)c1 (centres undefined) | 6.14
12 | O=C1N(CCN2CCCCC2)C(=O)C(c2ccccc2)(N2CCCCC2)C(=O)N1CCN1CCCCC1 | 7.64
13 | CNC(=O)Oc1ccccc1C(C)C | 8.12
14 | Cc1ccc2c(-c3ccccc3)nc(=O)n(C(C)C)c2c1 | 9.61
15 | CC1C(=O)OC2CCN3CC=C(COC(=O)C(C)(O)C1(C)O)C23 (centres undefined) | 2.92
16 | Cc1cccc2n[nH]nc12 | 5.83
17 | NC(=O)N=C(N)N | 1.31
18 | NCC(O)c1cccc(O)c1 (centres undefined) | 1.81
19 | CC(O)Cn1cnc2c1c(=O)n(C)c(=O)n2C (centres undefined) | 4.34
20 | C=C(c1ccc(C(=O)O)cc1)c1cc2c(cc1C)C(C)(C)CCC2(C)C | 14.1
21 | CC(N)Cc1ccc2occc2c1 (centres undefined) | 4.79
22 | CCCSP(=S)(OCC)Oc1ccc(SC)cc1 (centres undefined) | 12.8

Row | SMILES | LC retention time [min]
23 | CC(=O)Nc1ccc(S(=O)(=O)Nc2nccs2)cc1 | 4.24
24 | Cc1ccc(C(CCN(C)C)c2ccccc2)cc1 (centres undefined) | 7.47
25 | COc1ccc(NS(=O)(=O)c2ccc(N)cc2)nn1 | 4.38
26 | CCC(=O)c1ccc2c(c1)N(CCCN(C)C)c1ccccc1S2 | 8.49
27 | CCCOc1ccc(S(=O)(=O)NCCC2CCCN2C)cc1-c1nc2c(CCC)nn(C)c2c(=O)[nH]1 (centres undefined) | 7.83
28 | CCOP(=O)(Sc1ccccc1)Sc1ccccc1 | 10.8
29 | CC=CC(=O)N(CC)c1ccccc1C | 9.24
30 | CCCCCn1cc(C(=O)c2cccc3ccccc23)c2ccccc21 | 12.4
31 | CNC(=O)C(=NOC)c1ccccc1COc1cc(C)ccc1C | 10.7
32 | COc1ccc2nc(S(=O)Cc3ncc(C)c(OC)c3C)[nH]c2c1 (centres undefined) | 7.81
33 | CCCc1nn(C)c2c(=O)[nH]c(-c3cc(C(=O)CN4CCN(CC)C(=O)C4=O)ccc3OCC)nc12 | 8.18
34 | Nc1ccc(S(=O)(=O)Nc2ncccn2)cc1 | 3.48
35 | CC(=O)Nc1ccc(O)cc1 | 3.48
36 | CCCS(=O)(=O)c1ccc2nc(NC(=O)OC)[nH]c2c1 | 5.86
37 | CCOC1OC(C(=O)O)C(O)C(O)C1O (centres undefined) | 1.52
38 | CCCCC1=NC2(CCCC2)C(=O)N1Cc1ccc(-c2ccccc2-c2nn[nH]n2)cc1 | 9.44
39 | COCCCOc1cc(CC(CC(N)C(O)CC(C(=O)NCC(C)(C)C(N)=O)C(C)C)C(C)C)ccc1OC (centres undefined) | 8.87
40 | CC=C1CC(C)C(C)(O)C(=O)OCC2=CCN(C)CCC(OC1=O)C2=O (centres undefined) | 5.16
41 | CCS(=O)(=O)CCn1c([N+](=O)[O-])cnc1C | 3.86
42 | CC(C)(ON=C(C(=O)NC1C(=O)N2C(C(=O)[O-])=C(C[n+]3ccccc3)CSC12)c1csc(N)n1)C(=O)O (centres undefined) | 3.38
43 | CC1COC(=O)c2cc3c(cc21)C(C)(C)C(C)C3(C)C (centres undefined) | 12
44 | C=CC=CCC1=C(C)C(OC(=O)C2C(C=C(C)C)C2(C)C)CC1=O (centres undefined) | 12.9
